Assay results taken from PubChem BioAssay (NCI).
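Dose response: 5 concentrations. Exposure: 48 h. Format: 96-well plates. Endpoint: linear interpolation; highest concentration if not reached. TGI is the concentration that stops growth completely.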 Where a SMILES comes first, the peptide text is derived from it. [ ]: non-standard residue; d: D form. The star is where a group is joined. Iva = CC[C](C)(N)C(=O)O; Boc = CC(C)(C)OC(=O)*; X52 = C1CCC(=NO*)C1

How the values were obtained:
Test in all cases: DTP human tumour cell line panel, 48 h
[1] = system: CAKI-1 renal
[2] = system: CCRF-CEM leukemia
[3] = system: COLO 205 colon
[4] = system: HCT-116 colon
[5] = system: HOP-92 NSCLC
[6] = system: LOX IMVI melanoma
[7] = system: MCF7 breast
[8] = system: NCI-H226 lung
[9] = system: NCI-H23 lung
[10] = system: NCI/ADR-RES ovarian
[11] = system: OVCAR-3 ovarian
[12] = system: OVCAR-8 ovarian
[13] = system: RPMI-8226 leukemia
[14] = system: SK-MEL-2 melanoma
[15] = system: SK-MEL-28 melanoma
[16] = system: SK-OV-3 ovarian
[17] = system: SNB-19 CNS
[18] = system: M14 melanoma
[19] = system: TK-10 renal
[20] = system: HL-60(TB) leukemia

Structure (SMILES): COc1cc2cc3c4cc(OC)c(OC)cc4cc[n+]3cc2cc1OC
- TGI [1]: > 100 µM
- TGI [2]: > 100 µM
- TGI [3]: > 100 µM
- TGI [4]: > 100 µM
- TGI [5]: > 100 µM
- TGI [6]: > 100 µM
- TGI [7]: > 31.6 µM
- TGI [8]: > 100 µM
- TGI [9]: > 100 µM
- TGI [10]: > 100 µM
- TGI [11]: > 73.3 µM
- TGI [12]: > 100 µM
- TGI [13]: > 100 µM
- TGI [14]: > 100 µM
- TGI [15]: > 100 µM
- TGI [16]: > 100 µM
- TGI [17]: > 100 µM

Structure (SMILES): O=[N+]([O-])c1ccc(N=Nc2c(O)ccc3ccccc23)c([N+](=O)[O-])c1
- TGI [1]: > 100 µM
- TGI [2]: > 64.6 µM
- TGI [3]: > 100 µM
- TGI [4]: > 100 µM
- TGI [5]: > 100 µM
- TGI [6]: > 100 µM
- TGI [18]: > 100 µM
- TGI [7]: > 100 µM
- TGI [8]: > 100 µM
- TGI [9]: > 100 µM
- TGI [10]: > 100 µM
- TGI [11]: > 100 µM
- TGI [12]: > 100 µM
- TGI [13]: > 100 µM
- TGI [14]: > 100 µM
- TGI [15]: > 100 µM
- TGI [16]: > 100 µM
- TGI [17]: > 100 µM
- TGI [19]: > 100 µM

Structure (SMILES): CC(C)OP(=O)(OC(C)C)c1nc(-c2ccccc2)n(-c2ccc([N+](=O)[O-])cc2)n1
- TGI [1]: > 100 µM
- TGI [2]: > 100 µM
- TGI [3]: > 100 µM
- TGI [4]: > 100 µM
- TGI [20]: > 100 µM
- TGI [5]: > 100 µM
- TGI [18]: > 100 µM
- TGI [8]: > 100 µM
- TGI [9]: > 100 µM
- TGI [11]: > 100 µM
- TGI [12]: > 100 µM
- TGI [13]: > 100 µM
- TGI [14]: > 100 µM
- TGI [15]: > 100 µM
- TGI [16]: > 100 µM
- TGI [17]: > 100 µM
- TGI [19]: > 100 µM

Structure (SMILES): COc1ccc(C2SCC(=O)N2NC(=O)c2ccncc2)cc1F (stereo unspecified)
- TGI [1]: > 100 µM
- TGI [3]: > 100 µM
- TGI [4]: > 100 µM
- TGI [20]: > 100 µM
- TGI [5]: > 100 µM
- TGI [6]: > 100 µM
- TGI [18]: > 100 µM
- TGI [8]: > 100 µM
- TGI [9]: > 100 µM
- TGI [13]: > 100 µM
- TGI [14]: > 100 µM
- TGI [15]: > 100 µM
- TGI [16]: > 100 µM
- TGI [17]: > 100 µM
- TGI [19]: > 100 µM

Structure (SMILES): O=C(Nc1ccccc1)c1cc2ccccc2c(N=Nc2ccc([N+](=O)[O-])cc2)c1O
- TGI [1]: > 100 µM
- TGI [2]: 46.4 µM
- TGI [3]: > 100 µM
- TGI [4]: > 100 µM
- TGI [20]: > 100 µM
- TGI [5]: > 100 µM
- TGI [6]: > 100 µM
- TGI [18]: > 100 µM
- TGI [8]: > 100 µM
- TGI [9]: > 100 µM
- TGI [10]: > 100 µM
- TGI [11]: > 100 µM
- TGI [12]: > 100 µM
- TGI [13]: > 100 µM
- TGI [14]: > 100 µM
- TGI [15]: > 100 µM
- TGI [16]: > 100 µM
- TGI [17]: > 100 µM
- TGI [19]: > 100 µM

Structure (SMILES): CCC(C)(NC(=O)C(C)NC(=O)OC(C)(C)C)C(=O)NC(C)C(=O)NC(C)(CC)C(=O)ON=C1CCCC1 (stereo unspecified) (Boc-A[Iva]A[Iva]-X52; configuration not given here)
- TGI [1]: > 100 µM
- TGI [2]: > 100 µM
- TGI [3]: > 100 µM
- TGI [4]: > 100 µM
- TGI [20]: > 100 µM
- TGI [5]: > 100 µM
- TGI [18]: > 100 µM
- TGI [7]: > 100 µM
- TGI [8]: > 100 µM
- TGI [9]: > 100 µM
- TGI [10]: > 100 µM
- TGI [11]: > 100 µM
- TGI [12]: > 100 µM
- TGI [13]: > 100 µM
- TGI [14]: > 100 µM
- TGI [15]: > 100 µM
- TGI [16]: > 100 µM
- TGI [17]: > 100 µM

Structure (SMILES): C1CSCCSCCSCCSC1
- TGI [1]: > 100 µM
- TGI [3]: > 100 µM
- TGI [4]: > 100 µM
- TGI [5]: > 100 µM
- TGI [6]: > 100 µM
- TGI [18]: > 100 µM
- TGI [7]: > 100 µM
- TGI [8]: > 100 µM
- TGI [9]: > 100 µM
- TGI [10]: > 100 µM
- TGI [11]: > 100 µM
- TGI [12]: > 100 µM
- TGI [13]: > 100 µM
- TGI [14]: > 100 µM
- TGI [15]: > 100 µM
- TGI [16]: > 100 µM
- TGI [17]: > 100 µM
- TGI [19]: > 100 µM

Structure (SMILES): CCCC[C@H]1[C@@H](OCOc2ccccc2)COC(=O)N1[C@H](C)c1ccccc1
- TGI [1]: 30.5 µM
- TGI [2]: 68.8 µM
- TGI [3]: > 100 µM
- TGI [4]: 20.8 µM
- TGI [20]: 59.4 µM
- TGI [5]: 54 µM
- TGI [6]: 70.7 µM
- TGI [18]: 31.2 µM
- TGI [7]: 26.7 µM
- TGI [8]: > 100 µM
- TGI [9]: > 58.2 µM
- TGI [10]: > 66.1 µM
- TGI [11]: 27.8 µM
- TGI [12]: > 100 µM
- TGI [13]: 60.1 µM
- TGI [14]: 33.3 µM
- TGI [15]: 71.1 µM
- TGI [16]: > 56.1 µM
- TGI [17]: > 55 µM
- TGI [19]: 39 µM

Structure (SMILES): O=P1(Oc2ccc(Cl)cc2Cl)Oc2ccc3ccccc3c2-c2c(ccc3ccccc23)O1
- TGI [1]: 43.3 µM
- TGI [2]: > 89.6 µM
- TGI [3]: > 100 µM
- TGI [4]: > 75.1 µM
- TGI [20]: 53.8 µM
- TGI [5]: 50.1 µM
- TGI [6]: 53.9 µM
- TGI [7]: > 100 µM
- TGI [8]: 59.8 µM
- TGI [9]: 75.8 µM
- TGI [10]: > 100 µM
- TGI [11]: 49.5 µM
- TGI [12]: > 100 µM
- TGI [13]: 48 µM
- TGI [14]: 36 µM
- TGI [15]: > 85.4 µM
- TGI [16]: > 100 µM
- TGI [17]: 82.8 µM
